Measured values taken from US20030166648A1, “Felbamate derived compounds” (priority 2002, published 2003).

What was measured:
[1] = LC/MS quantification of felbamate and metabolites in patient urine; assay type: in vivo, human; conditions: highest value; patient with total daily dose of 6.0 grams of felbamate
Method: Preparation of Patient Urine Samples.
Urine samples were obtained from patient volunteers undergoing felbamate therapy for control of epileptic seizures and under the care of physicians at either the University of Virginia (Charlottesville, Va.) or the EpiCare Center (Memphis, Tenn.). Urine samples were diluted four fold with distilled water (this was done prior to overnight shipment for samples requiring shipping) and placed in an orbital shaking water bath for ˜20 min at 37° C. to insure that all of the analytes were in solution. 500 μL of this diluted sample were removed and added to 100 μL of a mixture of the four deuterated internal standards. […] After mixing, 200 μL were removed and added to 20 μL of 20% H0Ac. […] This fraction was then analyzed by LC/MS without further manipulation.
LC/MS Analysis of Urine Samples for Metabolite Quantification.
LC/MS analysis was performed using a Waters 2690 HPLC equipped with an autosampler and a Waters 486 tunable absorbance detector. […] The post-column flow was directed through a Waters 486 tunable absorbance detector (10 μL flow cell, λ=214 nm) which was used for qualitative assessment of the sample and not for quantitation. […]
Quantification was achieved by integration of the peaks from the mass chromatogram for each analyte using software (Navigator 1.1) provided with the LCQ. […]

[2] = tested on: painful peripheral neuropathy; conditions: rat model of painful peripheral neuropathy; cited from earlier work
[3] = Stability of oxazinane-dione at relevant pH; assay type: physicochemical
Description: It is anticipated, therefore, that the oxazinane-dione 9 is responsible for some aspects of felbamate's efficacy in vivo. As patients undergoing felbamate therapy for seizure control ingest large quantities of felbamate (grams per day), even a 1-2% conversion to a pharmacologically active metabolite could have significant effects. […] In light of the possibility that the oxazinane-dione 9 could be a metabolic precursor to the major human metabolite, acid carbamate 4, it may be formed in significant quantities (the acid carbamate was reported to represent ˜ 12% of a dose). […] Also included in this class are cyclic congeners 21 and 22, which may be formed from felbamate derivatives (see scheme II). Also included is 20, which may be an unknown metabolite of felbamate 1 and could be produced from felbamate derivative 12 by the cytochrome P450 metabolism.

| amount of felbamate excreted per mL of urine [1] | stability [3] | SMILES | effect on measures of pain (in words) [2] |
| --- | --- | --- | --- |
| 10,064±515 nMoles/mL |  | NC(=O)OCC(COC(N)=O)c1ccccc1 [felbamate, 2-phenyl-1,3-propanediol dicarbamate] | significant reductions in all measures of pain |
|  | unstable | O=C1NC(=O)C(c2ccccc2)CO1 (stereo not drawn) [oxazinane-dione 9] |  |
